Each compound was assayed against angiotensin II receptor (assay: Displacement of 125I- or 3H-angiotensin II from receptor preparations from various organs (liver, lung, adrenal gland, brain etc.)). Details: Table 1; radioligand displacement, 25° C., 90 min, pH 7.4.
Assay type: binding
Procedure: Alternatively, the affinity of the compounds of the formula I for the angiotensin II receptor can be determined by measurement of the ^125 I-angiotensin II or ^3 H-angiotensin II displacement of receptor preparations from various organs (liver, lung, adrenal gland, brain etc.).
To this end, the prepared membranes are suspended in an incubation buffer ([…], pH 7.4, containing 135 mM NaCl, 10 mM KCl, 10 mM MgCl2, 5 mM glucose, 0.2% bovine serum albumin and the protease inhibitors PMSF, 0.3 mM, and bacitracin, 0.1 mM) and incubated at 25° C. for 90 min together with the radioactively labeled angiotensin II and various concentrations of the compounds to be tested. Bound and free radioligand are then separated by filtration through micro glass fiber filters (GF51, Schleicher and Schull) in a cell collector (SKATRON).
The degree of displacement of the radioligand from the receptor by the test compounds is determined by measurement of the receptor-bound radioactivity on the filters by means of a beta- or gamma-spectrometer. The amount of the displacement of the radioligand from the receptor by the test compounds is indicated by the IC50, i.e. the concentration of the inhibitor which displaces 50% of the bound radioligand from the receptor. The calculation of the IC50 values is carried out by means of PC software (LIGAND, G. A. McPherson 1985, Elsevier BIOSOFT, 68 Hills Road, Cambridge, CB2 1LA, UK.).

Structure (SMILES) | IC50 [nM]
CCCCc1nc(SC)c(C(=O)O)n1Cc1ccc(-c2ccccc2S(=O)(=O)NC(=O)NCc2ccc(OC)cc2)cc1 [Example 90] | 0.69
CCCCc1nc(SC)c(C(=O)OCC)n1Cc1ccc(-c2ccccc2S(=O)(=O)NC(=O)NCCC)cc1 [Example 105] | 3
CCCCc1nc(SC)c(C(=O)OCC)n1Cc1ccc(-c2ccccc2S(=O)(=O)NC(=O)NCCc2ccccn2)cc1 [Example 65] | 1.8
CCCCc1nc(Cl)c(C=O)n1Cc1ccc(-c2ccccc2S(=O)(=O)NC(=O)NC2CN3CCC2CC3)cc1 (stereo not shown) [Example 31] | 153
CCCCc1nc(SC)c(C(=O)O)n1Cc1ccc(-c2ccccc2S(=O)(=O)NC(=O)Nc2ccccc2)cc1 [Example 102] | 2.3
CCCCc1nc(Cl)c(C=O)n1Cc1ccc(-c2ccccc2S(=O)(=O)NC(=O)Nc2ccccc2F)cc1 [Example 24] | 800
CCCCc1nc(SC)c(C(=O)O)n1Cc1ccc(-c2ccccc2S(=O)(=O)NC(=O)NCc2ccccc2OC)cc1 [Example 83] | 0.96
C=CCN(CC=C)C(=O)NS(=O)(=O)c1ccccc1-c1ccc(Cn2c(CCCC)nc(SC)c2C(=O)O)cc1 [Example 61] | 1.1
CCCCc1nc(SC)c(C(=O)O)n1Cc1ccc(-c2ccccc2S(=O)(=O)NC(=O)NCCC2=CCCCC2)cc1 [Example 62] | 3.6
CCCCc1nc(SC)c(C(=O)OCC)n1Cc1ccc(-c2ccccc2S(=O)(=O)NC(=O)N[C@H](C(=O)OC)C(C)CC)cc1 (stereo partly shown) [Example 68] | 12
CCCCc1nc(SC)c(C(=O)O)n1Cc1ccc(-c2ccccc2S(=O)(=O)NC(=O)NCc2ccncc2)cc1 [Example 115] | 0.9
CCCCc1nc(SC)c(C(=O)O)n1Cc1ccc(-c2ccccc2S(=O)(=O)NC(=O)NCc2ccccn2)cc1 [Example 113] | 0.3
C=CCNC(=O)NS(=O)(=O)c1ccccc1-c1ccc(Cn2c(CCCC)nc(SC)c2C(=O)OCC)cc1 [Example 58] | 3
C=CCNC(=O)NS(=O)(=O)c1ccccc1-c1ccc(Cn2c(CCCC)nc(SC)c2C(=O)O)cc1 [Example 56, 1-[(2'-allylaminocarbonylaminosulfonylbiphenyl-4-yl)methyl]-2-n-butyl-4-methylthioimidazole-5-carboxylic acid] | 4.6
CCCCc1nc(SC)c(C(=O)OCC)n1Cc1ccc(-c2ccccc2S(=O)(=O)NC(=O)N[C@H](CO)Cc2ccccc2)cc1 [Example 128] | 5.6

Other lines, results leading:

IC50 [nM] | Structure (SMILES)
4 | C=CCCCOC(=O)NS(=O)(=O)c1ccccc1-c1ccc(Cn2c(CCCC)nc(SC)c2C(=O)O)cc1 [Example 167]
4.7 | CCCCc1nc(SC)c(C(=O)OCC)n1Cc1ccc(-c2ccccc2S(=O)(=O)NC(=O)OCCOC(C)C)cc1 [Example 156]
2.9 | CC#CCOC(=O)NS(=O)(=O)c1ccccc1-c1ccc(Cn2c(CCCC)nc(SC)c2C(=O)O)cc1 [Example 169]
21.7 | CCCCc1nc(SC)c(C(=O)OCC)n1Cc1ccc(-c2ccccc2S(=O)(=O)NS(=O)(=O)c2cccs2)cc1 [Example 194]
1.5 | CCCCc1nc(SC)c(C(=O)O)n1Cc1ccc(-c2ccccc2S(=O)(=O)NC(=O)OCCc2ccccc2)cc1 [Example 152]
8.7 | CCCCc1nc(SC)c(C(=O)OCC)n1Cc1ccc(-c2ccccc2S(=O)(=O)NC(=O)OCc2cccs2)cc1 [Example 159]
40 | CCCCc1nc(SC)c(C(=O)OCC)n1Cc1ccc(-c2ccccc2S(=O)(=O)NC(=O)N2CCC(NC(=O)OC(C)(C)C)CC2)cc1 [Example 146]
8.2 | CCCCc1nc(SC)c(C(=O)OCC)n1Cc1ccc(-c2ccccc2S(=O)(=O)NC(=O)N2CCOCC2)cc1 [Example 140]
1.7 | CCCCc1nc(SC)c(C(=O)O)n1Cc1ccc(-c2ccccc2S(=O)(=O)NC(=O)OCc2ccccc2)cc1 [Example 183, 1-[(2'-Benzyloxycarbonylaminosulfonylbiphenyl-4-yl)methyl]-2-n-butyl-4-methylthioimidazole-5-carboxylic acid]
4.4 | CCCCc1nc(SC)c(C(=O)OCC)n1Cc1ccc(-c2ccccc2S(=O)(=O)NC(=O)N2CCCC2)cc1 [Example 141]
